Measured values taken from US12251383B2, “Methods and compositions for KRAS inhibitors” (The Board of Regents of the University of Texas System, priority 2019, dated 2025).

Key:
KRASWT = KRASWT (Homo sapiens, UniProt P01116); experiment: Nucleotide exchange assay (intrinsic and SOS-mediated); type: biochemical
Description: Nucleotide exchange and release assays. Loading of fluorescent-labeled GDP (BODIPY-GDP; BGDP from hereon) to KRAS was conducted following previous reports (23, 47), with minor modifications. Purified KRAS was buffer-exchanged in NAP-5 column (GE Life Sciences) in low Mg^2+ buffer (25 mM Tris pH 7.5, 50 mM NaCl, and 0.5 mM MgCl2). The eluate was incubated with 10-fold molar excess of BGDP (Life Technologies) in the presence of 5 mM EDTA and 1 mM DTT for 1.5 h at 20° C. in the dark. Then 10 mM MgCl2 was added and the solution was incubated for 30 min at 20° C. Free nucleotide was removed by gel filtration using a PD-10 column (GE Life Sciences) that had been equilibrated with the reaction buffer (25 mM Tris-HCL pH 7.5, 50 mM NaCl, 1 mM MgCl2, and 1 mM DTT). The concentration of ^BGDPKRAS was determined using Bradford assay and a BGDP standard curve. Then the effect of ligands on the intrinsic rate of nucleotide release was monitored using the decrease in fluorescence with time as BGDP dissociates from KRAS in a 100 μL reaction mixture (96-well plate) of 0.5 μM B^GDPKRAS, 100 μM GTP and varying concentrations of ligand (0 to 25 μM); GTP was added just before measurements. To measure the rate of SOS-mediated nucleotide release, 0.5 μM SOS (residues 564-1049, Cytoskeleton Inc) was added after adding GTP, and fluorescence was immediately read (excitation: 485 nm, emission: 510 nm) using Tecan Infinite M200 plate reader. Intrinsic and SOS-mediated nucleotide exchange rates were monitored with the fluorescence intensity increase of BGTP as it displaces GDP from KRAS. A 100 μL reaction mixture was used containing 0.5 μM each of ^GDPKRAS, BGTP (and SOS) plus varying concentrations of ligand (0 to 25 μM); BGTP was added just before measurements. Experiments were conducted with minimal light and the reaction was monitored for 2 h at room temperature. Fluorescence intensities were normalized at 120 s and the traces were fit with linear or single exponential functions (Igor Pro, Wavemetrics).
The effect of compound 11 on intrinsic and GEF-dependent nucleotide release and exchange reactions was determined. […] In particular, 11 decreased the intrinsic rate of nucleotide exchange by ˜10-fold at >10 μM (Fig S4, top-left), but it has no effect on intrinsic nucleotide release (Appendix I, Figure S4, bottom-left). […] Since GTP hydrolysis is unlikely to occur within the timescale of the experiments disclosed herein (2, 3), a plausible interpretation of the former would be compromised GTP loading. This is possible if, for example, the ligand binds to the nucleotide free ‘transition state’ conformation of KRAS and induces reorganization of active site residues. […]

KRAS = experiment: MST affinity for KRAS (G12D and other KRAS mutants); type: binding, human; conditions: MST KD

Sequence of KRASWT (P01116 1-188 isoform P01116-2): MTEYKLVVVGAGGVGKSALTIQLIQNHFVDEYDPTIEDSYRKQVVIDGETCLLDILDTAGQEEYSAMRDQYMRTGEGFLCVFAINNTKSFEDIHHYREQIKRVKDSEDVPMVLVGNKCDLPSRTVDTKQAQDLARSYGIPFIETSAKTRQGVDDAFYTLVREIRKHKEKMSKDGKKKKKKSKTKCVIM

SMILES	effect on SOS-mediated nucleotide exchange rate (KRASWT; SOS-mediated)	decrease of rate of nucleotide exchange (KRASWT; SOS-mediated (Fig S4 top-right)) [fold]	effect on intrinsic nucleotide exchange rate (KRASWT; intrinsic)	decrease of intrinsic rate of nucleotide exchange (KRASWT; intrinsic, at >10 μM) [fold]	weaker affinity for KRAS than compound 11 (KRAS)
Cc1nn2c(N3CCN(CCO)CC3)cc(-c3ccccc3)nc2c1-c1ccccc1 [Compound 11, 2-[4-(8-methyl-3,9-diphenyl-2,6,7-triazabicyclo[4.3.0]nona-2,4,7,9-tetraen-5-yl)piperazin-1-yl]ethanol]	slightly reduced	1.1	slightly reduced	~10	
Cc1cc(N2CCN(CCO)CC2)n2nc(C)c(-c3ccccc3)c2n1 [Compound 13]					6.5-7.1 fold
